Data reported in patent publication US20250064758A1 (priority 2023, published 2025).

Key:
MERS-COV = type: cell-based; details: plaque assay
SARS-COV = type: cell-based; details: plaque assay, 24 hpi
WT SARS-COV-2 = experiment: Golden Syrian hamster model of WT SARS-COV-2 infection; type: in vivo; details: 4 dpi
plasma proteins = details: over a wide range of blood concentrations; cited from earlier work
[1] = in vivo; cited from earlier work
SARS-COV-2 = details: hES-CMs, 0.1 MOI, 24 hpi, 50 uM Propranolol

CC(C)NCC(O)COc1cccc2ccccc12 (stereo not drawn) [Propranolol, 1-(isopropylamino)-3-(1-naphthyloxy)-2-propanol]
number of infectious viruses (viral plaques) (MERS-COV): effectively reduced | number of infectious viruses (viral plaques) (SARS-COV): effectively reduced | viral nucleocapsid protein expression in bronchiolar and alveolar epithelia (WT SARS-COV-2; hamster lung, immunofluorescence staining): significantly reduced | WT SARS-COV-2 genome copies in lung tissues (WT SARS-COV-2; hamster, 40 mg/kg intraperitoneal from 6 hpi, 4 doses, RT-qPCR, vs mock-treated, p<0.05): decreased | infectious virus titer in lung tissues (WT SARS-COV-2; hamster, 40 mg/kg intraperitoneal from 6 hpi, 4 doses, plaque assay, vs mock-treated, p<0.01): decreased | bound to plasma proteins (plasma proteins): more than 90% | elimination half-life [1]: approximately 8 hours | intracellular SARS-COV-2 viral load (SARS-COV-2; cell lysate): remarkably diminished | extracellular SARS-COV-2 viral load (SARS-COV-2; cell supernatant): remarkably diminished
